Source: ChEMBL document CHEMBL3046701, “Synthesis and biological activities of some N-hydroxymethylene and N-methoxymethylene thiazines” (Med Chem Res, 2007)

Assays:
Staphylococcus aureus [1] = assay: Antibacterial activity against Staphylococcus aureus at 50 ug/ml after 24 hr by disk diffusion method; assay type: functional; conditions: read-out: IZ
Escherichia coli [2] = assay: Antibacterial activity against Escherichia coli at 50 ug/ml after 24 hr by disk diffusion method; assay type: functional; conditions: read-out: IZ
Penicillium [3] = assay: Antifungal activity against Penicillium inclobium at 50 ug/ml after 72 to 96 hr by disk diffusion method; assay type: functional; conditions: read-out: IZ
Klebsiella pneumoniae [4] = assay: Antibacterial activity against Klebsiella pneumoniae at 50 ug/ml after 24 hr by disk diffusion method; assay type: functional; conditions: read-out: IZ
Bacillus subtilis [5] = assay: Antibacterial activity against Bacillus subtilis at 50 ug/ml after 24 hr by disk diffusion method; assay type: functional; conditions: read-out: IZ
Aspergillus flavus [6] = assay: Antifungal activity against Aspergillus flavus at 50 ug/ml after 72 to 96 hr by disk diffusion method; assay type: functional; conditions: read-out: IZ
[7] = Toxicity in po dosed Mus musculus albino (mouse); assay type: organism-based; conditions: in vivo
Penicillium [8] = assay: Antifungal activity against Penicillium inclobium at 100 ug/ml after 72 to 96 hr by disk diffusion method; assay type: functional; conditions: read-out: IZ
Bacillus subtilis [9] = assay: Antibacterial activity against Bacillus subtilis at 100 ug/ml after 24 hr by disk diffusion method; assay type: functional; conditions: read-out: IZ
Aspergillus flavus [10] = assay: Antifungal activity against Aspergillus flavus at 100 ug/ml after 72 to 96 hr by disk diffusion method; assay type: functional; conditions: read-out: IZ
Staphylococcus aureus [11] = assay: Antibacterial activity against Staphylococcus aureus at 100 ug/ml after 24 hr by disk diffusion method; assay type: functional; conditions: read-out: IZ
Escherichia coli [12] = assay: Antibacterial activity against Escherichia coli at 100 ug/ml after 24 hr by disk diffusion method; assay type: functional; conditions: read-out: IZ
Klebsiella pneumoniae [13] = assay: Antibacterial activity against Klebsiella pneumoniae at 100 ug/ml after 24 hr by disk diffusion method; assay type: functional; conditions: read-out: IZ
Staphylococcus aureus [14] = assay: Antibacterial activity against Staphylococcus aureus after 24 hr by disk diffusion method; assay type: functional
Klebsiella pneumoniae [15] = assay: Antibacterial activity against Klebsiella pneumoniae after 24 hr by disk diffusion method; assay type: functional
Escherichia coli [16] = assay: Antibacterial activity against Escherichia coli after 24 hr by disk diffusion method; assay type: functional
Bacillus subtilis [17] = assay: Antibacterial activity against Bacillus subtilis after 24 hr by disk diffusion method; assay type: functional
Penicillium [18] = assay: Antifungal activity against Penicillium inclobium after 72 to 96 hr by disk diffusion method; assay type: functional
Aspergillus flavus [19] = assay: Antifungal activity against Aspergillus flavus after 72 to 96 hr by disk diffusion method; assay type: functional
Penicillium [20] = assay: Antifungal activity against Penicillium inclobium at 25 ug/ml after 72 to 96 hr by disk diffusion method; assay type: functional; conditions: read-out: IZ
Bacillus subtilis [21] = assay: Antibacterial activity against Bacillus subtilis at 25 ug/ml after 24 hr by disk diffusion method; assay type: functional; conditions: read-out: IZ
Klebsiella pneumoniae [22] = assay: Antibacterial activity against Klebsiella pneumoniae at 25 ug/ml after 24 hr by disk diffusion method; assay type: functional; conditions: read-out: IZ
Escherichia coli [23] = assay: Antibacterial activity against Escherichia coli at 25 ug/ml after 24 hr by disk diffusion method; assay type: functional; conditions: read-out: IZ
Aspergillus flavus [24] = assay: Antifungal activity against Aspergillus flavus at 25 ug/ml after 72 to 96 hr by disk diffusion method; assay type: functional; conditions: read-out: IZ
Staphylococcus aureus [25] = assay: Antibacterial activity against Staphylococcus aureus at 25 ug/ml after 24 hr by disk diffusion method; assay type: functional; conditions: read-out: IZ

COCN1C(c2ccc(OC)cc2)CS(=O)(=O)CC1c1ccc(OC)cc1 (stereo unspecified)
zone of inhibition at 50 µg/mL (Staphylococcus aureus [1]): 12 mm
zone of inhibition at 50 µg/mL (Escherichia coli [2]): 11 mm
zone of inhibition at 50 µg/mL (Penicillium [3]): 11 mm
zone of inhibition at 50 µg/mL (Klebsiella pneumoniae [4]): 11 mm
zone of inhibition at 50 µg/mL (Bacillus subtilis [5]): 12 mm
zone of inhibition at 50 µg/mL (Aspergillus flavus [6]): 10 mm

O=S1(=O)CC(c2ccc(Cl)cc2)NC(c2ccc(Cl)cc2)C1 (stereo unspecified)
LD50 [7]: ≤ 1000 mg/kg

COCN1C(c2ccccc2)CS(=O)(=O)CC1c1ccccc1 (stereo unspecified)
zone of inhibition at 100 µg/mL (Penicillium [8]): 7 mm
zone of inhibition at 100 µg/mL (Bacillus subtilis [9]): 6 mm
zone of inhibition at 100 µg/mL (Aspergillus flavus [10]): 6 mm
zone of inhibition at 100 µg/mL (Staphylococcus aureus [11]): 7 mm
zone of inhibition at 100 µg/mL (Escherichia coli [12]): 9 mm
zone of inhibition at 100 µg/mL (Klebsiella pneumoniae [13]): 7 mm

O=S1(=O)CC(c2ccc(Cl)cc2)N(CO)C(c2ccc(Cl)cc2)C1 (stereo unspecified)
LD50 [7]: ≤ 1000 mg/kg

CCn1cc(C(=O)O)c(=O)c2cc(F)c(N3CCNCC3)cc21 [NORFLOXACIN]
inhibition zone (IZ) (Staphylococcus aureus [14]): 22 mm
inhibition zone (IZ) (Klebsiella pneumoniae [15]): 22 mm
inhibition zone (IZ) (Escherichia coli [16]): 22 mm
inhibition zone (IZ) (Bacillus subtilis [17]): 22 mm

COC1=CC(=O)C[C@@H](C)[C@]12Oc1c(Cl)c(OC)cc(OC)c1C2=O [GRISEOFULVIN]
inhibition zone (IZ) (Penicillium [18]): 22 mm
inhibition zone (IZ) (Aspergillus flavus [19]): 22 mm

COCN1C(c2ccc(Cl)cc2)CS(=O)(=O)CC1c1ccc(Cl)cc1 (stereo unspecified)
zone of inhibition at 25 µg/mL (Penicillium [20]): 14 mm
zone of inhibition at 25 µg/mL (Bacillus subtilis [21]): 15 mm
zone of inhibition at 25 µg/mL (Klebsiella pneumoniae [22]): 16 mm
zone of inhibition at 25 µg/mL (Escherichia coli [23]): 16 mm
zone of inhibition at 25 µg/mL (Aspergillus flavus [24]): 12 mm
zone of inhibition at 25 µg/mL (Staphylococcus aureus [25]): 15 mm
